Source: ChEMBL document CHEMBL1150490, “Endothelin eceptor Ligands. Multiple D-Amino acid replacement net approach” (Bioorg Med Chem Lett, 1993)

These compounds were tested against T1, Endothelin-1 receptor (Mus musculus, UniProt Q61614) (assay: Binding affinity for Endothelin A receptor was determined in murine 3T3 cells).
T1 sequence (Q61614 whole entry): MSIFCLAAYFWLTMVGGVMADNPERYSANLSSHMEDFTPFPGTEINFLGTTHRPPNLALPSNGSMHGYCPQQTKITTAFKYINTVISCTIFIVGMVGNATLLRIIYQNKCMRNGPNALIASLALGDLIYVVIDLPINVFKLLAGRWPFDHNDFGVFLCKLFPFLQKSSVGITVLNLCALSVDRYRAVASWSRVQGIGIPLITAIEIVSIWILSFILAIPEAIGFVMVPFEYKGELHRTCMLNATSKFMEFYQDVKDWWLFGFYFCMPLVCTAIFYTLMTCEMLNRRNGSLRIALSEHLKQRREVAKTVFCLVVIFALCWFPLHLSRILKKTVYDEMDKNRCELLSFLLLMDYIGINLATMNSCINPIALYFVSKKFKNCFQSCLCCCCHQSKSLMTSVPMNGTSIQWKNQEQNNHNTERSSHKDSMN
Format: cell-based, NIH3T3

IC50 [µM]	Compound
0.25	CC[C@H](C)[C@H](NC(=O)[C@@H](NC(=O)[C@@H](CC(=O)O)NC(=O)[C@H](N)CCCNC(=O)[C@H](Cc1ccccc1)NC(C)=O)[C@@H](C)CC)C(=O)N[C@@H](Cc1c[nH]c2ccccc12)C(=O)O
0.23	CC[C@H](C)[C@H](NC(=O)[C@H](CC(=O)O)NC(=O)[C@@H](N)CCCNC(=O)[C@H](Cc1ccccc1)NC(C)=O)C(=O)N[C@H](C(=O)N[C@@H](Cc1c[nH]c2ccccc12)C(=O)O)[C@@H](C)CC
0.9	CC[C@H](C)[C@H](NC(=O)[C@H](CC(=O)O)NC(=O)[C@H](N)CCCNC(=O)[C@H](Cc1ccccc1)NC(C)=O)C(=O)N[C@@H](C(=O)N[C@@H](Cc1c[nH]c2ccccc12)C(=O)O)[C@@H](C)CC
